# In US20130303562A1, “CHEMICAL AND RNAI SUPPRESSORS OF NEUROTOXICITY IN HUNTINGTON'S DISEASE” (priority 2010, published 2013):
# Entries after “also recorded” stand apart in the source; their conditions may differ. Where two headings read alike, the source gives them in different places.
# Legend:
# [1] = system: Htt138Q aggregate formation; assay: Htt-Q138 aggregation-inhibition screening of small molecules in Drosophila primary neural cultures (automated microscopy); format: cell-based; details: for Htt-Q138 aggregate formation (effect in words): range of concentrations (56 μM, 5.6 μM); for Htt-Q138 aggregation (effect in words): Htt-Q138 primary neural cultures
# Procedure: Primary Cell Culture. Elav^c155-GAL4 virgins were collected en-masse and crossed to either UAS-Htt-Q138-mRFP^1, UAS-mCD8-GFP or UAS-HttQ15-mRFP^1, UAS-mCD8-GFP males to generate embryos for primary culture preparation. Neuroblasts were isolated as described (Sepp et al., 2008).
# Compound screening: Primary cultures were re-suspended directly in Shields and Sang M3 media (Sigma) supplemented with 10 U/mL penicillin, 10 μg/mL streptomycin, 200 ng/mL insulin, and 5% fetal bovine serum. […] of compounds from arrayed small-molecule libraries (NINDS Custom Collection 2, Prestwick) Collection, BIOMOL2 ICCB-Longwood Known Bioactives High Concentration, various concentration from 1-15 mM in DMSO) were applied to 50 μL of cultures 24 hours after plating on optical bottom 384-well plates (Corning 3712). The neuroblast density was 18,500 cells/well. The primary screen was carried out in duplicate and hits were validated with 12 additional replicate wells.
# (§1) Microscopy: For high-content screening mature 7-day old cultures were imaged with an ImageXpress^MICRO robotic microscope (Molecular Devices, Sunnyvale, Calif.) using a 10× objective and FITC/Cy3 filter sets. Images were 1392×1040 pixels, or 897×670 micrometers. Laser-based autofocusing was used to locate plate bottoms, and then image-based focusing used to resolve fluorescently labeled neurons over a 48 μm range. The GFP and mRFP channels were imaged in the same focal plane, with exposure times of 850 and 400 ms respectively. Three sites were imaged per well for each treatment group, and the screen was done in duplicate. For confocal microscopy of primary cultures, neuroblasts were plated on poly-L-lysine coated chambered cover slips (LabTekII, 0.8 cm^2/well) at 18,300 cells/well in 50 μL volume. Small molecules were added to cultures 24 hours after plating, incubated for 7 days, and then imaged with a Leica TCS-SP2 confocal LSM microscope.
# (§2) Digital Image Analysis of High Content Screening Data Sets: Neuronal morphological analysis and Htt aggregate quantification for automated microscopy images was performed as previously described (Schulte et al., Wu et al.). In brief, Htt-Q138 aggregates were quantified as the total number of pixels/image with an intensity higher than an empirically set threshold. Statistical analysis was conducted using a two sample t-test. To quantify neuronal morphologies, cell body clusters (neuromeres) and neurites were extracted from images using our custom algorithms (Wu et al.). […] Absolute counts of neuromeres/bin were tabulated for all images. Neurite segment lengths were similarly clustered into three groups (short, medium, and long) using the K-means method and then quantified. Cell cluster and neurite counts were converted into percentages to control for any variation in cell number between wells arising from pipetting error. Mean neuromere area and neurite length for each image were also calculated to give a total of eight morphological metrics for image morphology quantification. For statistical analysis, p-values for each morphological feature were calculated using a two sample t-test (e.g. small neuromere feature of Htt-Q138 drug-treated cultures versus small neuromere feature of Htt-Q15 DMSO cultures). The resultant morphological p-values for individual features were then integrated into a single p-value using the Fisher method (Fisher 1932) defined by the equation χ^2=−2Σi=1^k loge(pi), where k represents independent tests, pi is the p-value of the i-th feature. The combined statistic has a χ^2 distribution with 2k degrees of freedom under the joint null hypothesis. This method works well in cases where the evidence against the null-hypothesis is spread across different features. Excluded from analysis were compound-treated wells with <6 images, out-of-focus images, or images that lacked cell profiles altogether.
# [2] = system: Htt-Q138 expressing Drosophila primary neural cultures; assay: Morphological analysis of small-molecule treated Htt-Q138 primary neural cultures versus Htt-Q15 controls; format: cell-based; details: for Morphology profiles of Q138 expressing neurons (effect in words): Htt-Q138 primary neural cultures, compared with Htt-Q15 controls
# Procedure: Primary Cell Culture. Elav^c155-GAL4 virgins were collected en-masse and crossed to either UAS-Htt-Q138-mRFP^1, UAS-mCD8-GFP or UAS-HttQ15-mRFP^1, UAS-mCD8-GFP males to generate embryos for primary culture preparation.
# Compound screening: Primary cultures were re-suspended directly in Shields and Sang M3 media (Sigma) supplemented with 10 U/mL penicillin, 10 μg/mL streptomycin, 200 ng/mL insulin, and 5% fetal bovine serum. […] The neuroblast density was 18,500 cells/well. The primary screen was carried out in duplicate and hits were validated with 12 additional replicate wells.
# as §1, with “Images were 1392×1040 pixels, or 897×670 micrometers.” left out
# as §2, with “The resultant morphological p-values for individual features were then integrated into a single p-value using the Fisher method (Fisher 1932) defined by the equation χ^2=−2Σi=1^k loge(pi), where k represents independent tests, pi is the p-value of the i-th feature.” left out
# [3] = system: Htt-Q138 expressing primary neural cultures; assay: In vitro validation of screen hits by confocal microscopy of primary cultures on glass coverslips; format: cell-based, Drosophila; details: for Aggregate formation (confocal): 56 μM, Htt-Q138 expressing cultures
# Description: FIG. 4. In vitro validation of small molecule screen hits. Confocal microscopy images of primary cultures plated on glass coverslips and treated with either DMSO (A,B) or test compounds (C,D). […] HttQ15 is soluble and fills most neurite processes. […] (E) Quantification of altered Htt138Q distribution following Camptothecin treatment.
# as §1
# [4] = system: HD larvae (Elav^c155-GAL4; UAS-Htt-Q138/+); assay: In vivo rescue: viability of HD larvae after 5-day drug dosing in liquid culture; set-up: species or system Drosophila; details: larvae reared in liquid culture, 5-day dosing, compared to DMSO-treated controls
# Procedure: In vivo Rescue studies: For small molecule in vivo rescue studies, Elav^c155; UAS-Htt-Q138-mRFP^1, UAS-mCD8-GFP/+1st instar larvae were collected en-masse and dispensed into liquid yeast media (10 larvae/well) containing therapeutic agents at three different concentrations as described in the results (n=8 replicas/concentration). Cultures were reared at 21° C. and larval viability was assessed after 5 days and the mean number of living Htt138Q larvae (i.e. GFP^+, Htt138QmRFP^+, and mobile) was tabulated, and expressed as a percentage of total larvae/well. For genetic rescue studies with lkb1, two Htt138Q strains were utilized: a strong expressing line, UAS-Htt138QmRFP^1 which is pharate lethal when crossed to Elav^c155, and a weaker expressing line, UAS-Htt138QmRFP^2 which survives to adulthood and is viable for a number of weeks. Using the strong line, pharate lethality at 25° C. was calculated after lkb1 (lkb1^4B1-11 and lkb1^4A4-2 alleles) was introduced into an Elav^c155, UAS-Htt/+background. Lkb1^4B1-11 is a premature truncation allele (Q98>Stop), and lkb1^4A4-2 is an EMS null allele (589 b.p. deletion removing 150 b.p. of the 5′ UTR, the start codon and the beginning of the open reading frame). For Top1 in vivo analysis, Elav^c155, Top^112 recombinants were generated and crossed to UAS-Htt138QmRFP^1.
# To further examine the RNAi/small molecule screen hits, we assayed in vivo efficacy by testing their ability to rescue lethality in our Drosophila HD model. […] Specific inhibitors of Lkb1 were not available for in vivo testing.
# [5] = system: PC12 cells; details: cited from earlier work
# [6] = system: gap junction; details: cited from earlier work
# [7] = Solubility / precipitation in cultures; format: physicochemical; details: liquid cultures
# [8] = system: NP-3 mouse HD model; details: cited from earlier work
smiles,measurement,setting,value
CCC1(O)C(=O)OCc2c1cc1n(c2=O)Cc2cc3cc(O)ccc3nc2-1 (centres unmarked) [10-OH-Camptothecin],Htt-Q138 aggregate formation (effect in words),[1],rescue aggregate formation
same,Dystrophic morphology profiles (effect in words),[2],partially reverting dystrophic morphology profiles
same,Morphology profiles of Q138 expressing neurons (effect in words),[2],Rescue of Htt-Q138 mutant morphology
same,Aggregate formation (confocal),[3],reduces aggregate formation
same,Viability of Htt-Q138 expressing larvae / rescue of Htt-Q138 lethality,[4]; listed as 10-Hydroxycamptothecin,"increased larval longevity in vivo, but to a lesser extent than Rapamycin; also recorded: more efficacious than Camptothecin"
CC1(C)[C@@H](O)CC[C@]2(C)[C@H]3C(=O)C=C4[C@@H]5C[C@@](C)(C(=O)O)CC[C@]5(C)CC[C@@]4(C)[C@]3(C)CC[C@@H]12 [18β-Glycyrrhetinic acid],Viability of Htt-Q138 expressing larvae / rescue of Htt-Q138 lethality,[4],rescue HD toxicity in vivo
same,Viability of Htt-Q138 expressing larvae / rescue of Htt-Q138 lethality,[4]; listed as 180-Glycyrrhetinic acid,almost as efficacious as Rapamycin
same,Neurotoxicity in PC12 cellular stress model,[5],suppresses neurotoxicity
same,Gap junction activity,[6],block gap junction activity
O=C(Nc1ccc(Br)cc1)c1cccc(S(=O)(=O)Nc2ccc(Br)cc2)c1 [C2-8],Htt-Q138 aggregation (effect in words),[1],reduced Htt-Q138 aggregation
same,Neurotoxic properties / morphological defects in cultures,[2],"reduced axon outgrowth, neuromere size, and suppressed GFP expression"
same,Morphology profiles of Q138 expressing neurons (effect in words),[2],none reverted the morphology profiles of Q138 expressing neurons towards normal
CC[C@@]1(O)C(=O)OCc2c1cc1n(c2=O)Cc2cc3ccccc3nc2-1 [Camptothecin],Htt-Q138 aggregate formation (effect in words),[1],rescue aggregate formation
same,Neurotoxic properties / morphological defects in cultures,[2]; primary neural cultures,did not observe morphological defects
same,Dystrophic morphology profiles (effect in words),"[2]; range of concentrations (56 μM, 5.6 μM)",partially reverting dystrophic morphology profiles
same,Aggregate formation (confocal),[3],reduces aggregate formation
same,Number of Htt138Q pixels/neuronal area (Htt-RFP pixels/neuromere and neurite GFP pixels),"[3]; mutant cultures, p<0.05, n=4",increase
same,Viability of Htt-Q138 expressing larvae / rescue of Htt-Q138 lethality,[4],"increased larval longevity in vivo, but to a lesser extent than Rapamycin"
same,Precipitation when added to cultures,[7],readily precipitates when added to cultures
O=C1Nc2ccc(I)cc2/C1=C/c1cc(Br)c(O)c(Br)c1 [GW5074],Htt-Q138 aggregation (effect in words),[1],reduced Htt-Q138 aggregation; also recorded: inhibited mutant Hu aggregate formation
same,Neurotoxic properties / morphological defects in cultures,[2],"reduced axon outgrowth, neuromere size, and suppressed GFP expression"
same,Morphology profiles of Q138 expressing neurons (effect in words),[2],none reverted the morphology profiles of Q138 expressing neurons towards normal
same,Striatal degeneration,[8],reduced striatal degeneration
C=C1[C@@H](O)[C@@H]2O[C@]3(CC[C@H](/C=C/[C@@H](C)[C@@H]4CC(C)=C[C@@]5(O[C@H](C[C@@](C)(O)C(=O)O)CC[C@H]5O)O4)O3)CC[C@H]2O[C@@H]1[C@@H](O)C[C@H](C)[C@H]1O[C@@]2(CCCCO2)CC[C@H]1C [Okadaic acid],Htt-Q138 aggregation (effect in words),[1],suppress Htt-Q138 aggregation
same,Morphology profiles of Q138 expressing neurons (effect in words),[2],exacerbated the mutant Htt-Q138 mutant morphology
C[C@@H]1C[C@H]2O[C@@H]2/C=C\C=C\C(=O)Cc2c(Cl)c(O)cc(O)c2C(=O)O1 [Radicicol],Htt-Q138 aggregation (effect in words),[1],reduced Htt-Q138 aggregation
same,Neurotoxic properties / morphological defects in cultures,[2],"reduced axon outgrowth, neuromere size, and suppressed GFP expression"
same,Morphology profiles of Q138 expressing neurons (effect in words),[2],none reverted the morphology profiles of Q138 expressing neurons towards normal
CO[C@H]1C[C@@H]2CC[C@@H](C)[C@@](O)(O2)C(=O)C(=O)N2CCCC[C@H]2C(=O)O[C@H]([C@H](C)C[C@@H]2CC[C@@H](O)[C@H](OC)C2)CC(=O)[C@H](C)/C=C(\C)[C@@H](O)[C@@H](OC)C(=O)[C@H](C)C[C@H](C)/C=C/C=C/C=C/1C [Rapamycin],Neurotoxic properties / morphological defects in cultures,[2]; primary neural cultures,"reduced axon outgrowth, neuromere size, and suppressed GFP expression"
